The values that follow are results of earlier work, collected in article PMC4955775 (Bioorganic & medicinal chemistry letters, 2016).

[ ]: non-standard residue; d: D form. Dmt = Cc1cc(O)cc(C)c1C[C@H](N)C(=O)O; Tic = O=C(O)[C@@H]1Cc2ccccc2CN1

Turning to `Cc1cc(O)cc(C)c1C[C@H](N)C(=O)N[C@H](CCCNC(=N)N)C(=O)N[C@@H](Cc1ccccc1)C(=O)N[C@@H](CCCCN)C(N)=O` [Compound 5, H-Dmt-D-Arg-Phe-Lys-NH2], the “duration of the antinociceptive effect, times longer than morphine” value is 4 times.
On to H-[Dmt][Tic]FF-NH2 [DIPP-NH2], for which the “fold increased binding affinity at δ receptor compared to TIPP-NH2” value in the data set on δ receptor is reported as 25 fold. For the same compound, the “fold increased binding affinity at μ receptor compared to TIPP-NH2” value with μ receptor is 65 fold.
